Laboratory results reported in patent publication US20040005294A1, “IGFBP-3 in the diagnosis and treatment of cancer” (priority 2002, published 2004).

Tests used:
NSCLC cell lines = assay: MTT cell growth assay, NSCLC cell lines; type: cell-based, human; settings: serum-free medium, 3 days
Description: To measure the effects of IGF-I and IGF-II on proliferation of NSCLC cells, 2×10^3 NSCLC cell lines were incubated in serum-free medium containing 0.01-500 ng/ml IGF-I or IGF-II for 3 days. To measure the effects of Ad5CMV-BP-3 on proliferation of NHBE and NSCLC cell lines, these cells were seeded at 1×10^−2×10^3 cells/well in 96-well plates. After 1 day, cells were untreated or infected with 1×10^3, 5×10^3, or 1×10^4 particles/cell of Ad5CMV-BP3 or Ad5CMV (parental virus) as a viral control. Infection was allowed to occur for 2 h in the absence of serum, and infected cells were grown in medium containing 100 ng/ml or 250 ng/ml IGF-I. After 3 days of incubation, the growth of infected cells was measured by the 3-(4,5-dimethylthiazol-2-yl)-2,5-diphenyltetrazolium bromide (MTT) assay as previously described (Sueoka et al., 2000).

H1299 cells = assay: Apoptosis by APO-BRDU staining and flow cytometry; type: cell-based, human; settings: serum-free medium, 100 ng/ml IGF-I, 3 days
Description: Apoptosis was measured using the APO-BRDU staining kit (Phoenix Flow Systems, San Diego, Calif.) as previously described (Sueoka et al., 2000). Briefly, H1299 cells were untreated or infected with Ad5CMV or Ad5CMV-BP3, and then allowed to grow in serum-free medium or medium containing 10% serum or 100 ng/ml IGF-I for 3 days. Floating and adherent cells were analyzed using a FACScan flow cytometer (Becton Dickinson, San Jose, Calif.) to determine the percentage of apoptotic cells. The percentage of dead cells was determined by FACS analysis of propidium iodide-stained nuclei. Apoptosis was also determined by detecting of nucleosomal DNA fragmentation, which was measured using the TACS apoptotic DNA laddering kit (Trevigen, Inc., Gaithersburg, Md.) according to the manufacturer's protocol. Briefly, DNA was isolated from untreated or virus-infected H1299 cells by incubating the cells in lysis buffer. DNA samples were then subjected to electrophoresis on a 1.5% agarose gel and visualized by ethidium bromide staining. […] Apoptosis was measured using the APO-BRDU staining kit as described above.

[1] = system: IGFBP-3 mRNA in H1299 cells; assay: Northern blot of IGFBP-3 expression after demethylating agent; type: cell-based, human; settings: 5 days, RPMI 1640 with 2% FCS
Description: NSCLC cell lines and H1299 cells treated with 0.1, 1, or 5 μM of 5-aza-dC (Sigma, St. Luois, Mo.) for 5 days in RPMI 1640 medium containing 2% FCS were lysed in 4.0 M guanidinium isothiocyanate, and total cellular RNA was extracted as described previously (Kim et al., 1995). 20 μg of RNA was subjected to electrophoresis on a 1% agarose gel containing 2% formaldehyde. After gels were soaked in 50 mM NaOH/1×standard saline citrate (SSC) for 20 min followed by 10×SSC for 20 min, RNA was transferred onto a Zeta-Probe membrane (Bio-Rad Laboratories, Hercules, Calif.) overnight by the capillary transfer method. Membranes were cross-linked and then incubated in the hybridization solution containing […] IGFBP-3 or glyceraldehyde-3-phosphate dehydrogenase (GAPDH) cDNA as a control. The probe was labeled using a Prime-It® II Random Primer Kit (Stratagene, La Jolla, Calif.) and harvested with MicroSpin™ S-300 HR Columns (Amersham Phamacia Biotech Inc., Piscataway, N.J.). After overnight incubation, membranes were washed in high stringency condition and exposed to enhanced chemiluminescence (ECL) films for autoradiography.

1799 cells = assay: MTT proliferation assay, 1799 cells; type: cell-based, human; settings: 2×10^−6 M or 4×10^−6 M, 2 days
Description: To measure the effects of deguelin on cell proliferation, NHBE, 1799, 1198, 1170-1, and HB56B cells were plated at concentrations of 2×10^3 to 4×10^3 cells/well in 96-well plates. The next day, cells were treated with either 0.1% DMSO as a diluent control or various concentrations of deguelin (final DMSO concentration=0.1%). At the end of the assay time period, cell proliferation was measured by the 3-(4,5-dimethylthiazol-2-yl)-2,5-diphenyltetrazolium bromide (MTT) assay as described (Lee et al., 2002). Six replicate wells were used for each analysis, and data from replicate wells are presented as means with 95% confidence intervals (CIs). For some experiments, the drug concentration required to inhibit cell growth by 50% (IC50) was determined by interpolation from dose-response curves. At least three independent experiments were performed.
To determine whether deguelin-induced antiproliferative effects on premalignant HBE cells were mediated through the inhibition of the PI3K/Akt pathway, 2×10^5 1799 cells/well or 1×10 ^6 squamous HBE cells/well in six-well plates were infected with 5×10 ^3 particles/cell of a control virus (Ad5CMV) or with 1×10^3 or 5×10^3 particles/cell of Ad5CMV-MyrAkt-HA, an adenoviral vector that expresses a constitutively active Akt. (MyrAkt) in KSFM. After 1 day of infection, cells were treated with 10^−7M or 10^−6M deguelin, 2×10^−6 M or 4×10^−6M N-(4-hydroxyphenyl)retinamide (4-HPR), or 0.1% DMSO as a control and then incubated for 1 or 2 days. Apoptosis was analyzed using the APO-BrdU staining kit for TUNEL, Western blot analyses for caspase-3, and the cleavage of PARP.

[2] = system: PI3K/Akt pathway in 1799 cells; assay: Immunoblot of pAkt and pGSK-3β, 1799 cells; type: cell-based, human; settings: 2-4 μM
Description: Whole cell lysates from 1×10^6 cells were prepared in lysis buffer as described (Lonardo et al., 2002). Equivalent amounts of protein were resolved by sodium dodecyl sulfate (SDS)-polyacrylamide gels (7.5%-12%) and transferred to a nitrocellulose membrane. After the membrane was blocked in Tris-buffered saline (TBS) containing 0.05% Tween 20 (TBST) and 5% (w/v) nonfat powdered milk, the membrane was incubated with primary antibody at the appropriate dilution in TBS-5% nonfat milk at 4° C. for 16 h. The membrane was then washed multiple times with TBST and incubated with the appropriate horseradish peroxidaseconjugated secondary antibody for 1 h at room temperature. The protein-antibody complexes were detected by enhanced chemilurminescence (ECL kit; Amersham, Arlington Heights, Ill.), according to the manufacturer's recommended protocol. […]

chick embryo CAM = assay: Chorioallantoic membrane angiogenesis induced by bFGF; type: in vivo; settings: bFGF 50 ng alone, 72 h; positive eggs/total
Description: To assess whether IGFBP-3 is able to inhibit angiogenesis chick embryos were induced with IGFBP3 and dnIGFIR. On day 10, each CAM was exposed to bFGF (50 ng/disk) in the absence or presence of 10^4 particles of Ad5CMV alone, Ad5CMV-IGFBP3, or Ad5CMV-dnIGFIR. After 72 h of incubation, a fat emulsion was injected into the CAM to visualize the blood vessels. CAMs were examined with a microscope to count the positive responsive eggs which have spoke wheel-like vessels. Both IGFBP3 and dnIGFIR inhibited chorioallantoic membrane angiogenesis induced by bFGF FIG. 14. The results are expressed as the percentages of embryos showing activation (FIG. 14A). Positivity for angiogenesis in chick embryos subjected to various conditions was as follows: Collagen alone: 1/5; bFGF (50 ng): 5/5; EV(10^4)+bFGF: 7/8; IGFBP3(10^4)+bFGF: 4/9; dnAKT (10^4)+bFGF: 8/9; dnIGFR (10^4)+bFGF: 4/9; and KP372 (100 nM)+bFGF: 8/9.

IGF-I = IGF-I (Homo sapiens, UniProt P05019); assay: Western ligand blot of conditioned media; type: binding; settings: conditioned media of Ad5CMV-BP3-infected H1299 cells, [125I]IGF-I probe
Description: Conditioned media were collected from H1299 cells after adenoviral infection. Western blot and Western ligand blot analyses were performed using 30 μg of whole cell lysate or 30 μl of conditioned media as previously described (Sueoka et al., 2000).

IGF-I, sequence (P05019 49-118 limits assumed, species assumed): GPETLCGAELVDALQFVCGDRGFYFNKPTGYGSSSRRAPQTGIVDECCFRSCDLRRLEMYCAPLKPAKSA
IGF-I, sequence (P17936 28-291 partner, species assumed): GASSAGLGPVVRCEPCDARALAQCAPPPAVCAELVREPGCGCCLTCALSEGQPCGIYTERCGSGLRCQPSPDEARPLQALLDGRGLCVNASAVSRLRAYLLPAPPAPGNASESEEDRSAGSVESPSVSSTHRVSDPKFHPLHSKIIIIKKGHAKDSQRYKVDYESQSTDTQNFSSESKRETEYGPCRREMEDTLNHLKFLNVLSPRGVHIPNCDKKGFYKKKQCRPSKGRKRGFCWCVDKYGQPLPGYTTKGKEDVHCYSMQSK

IGF-I: insulin-like growth factor I, purchased from R&D Systems
concentration inducing growth of NSCLC cell lines (NSCLC cell lines): > 10 ng/mL | effect on serum depletion-induced apoptosis (H1299 cells): rescued H1299 cells from serum depletion-induced apoptosis

Nc1ncn([C@H]2C[C@H](O)[C@@H](CO)O2)c(=O)n1 [5-aza-dC]
concentration reactivating IGFBP-3 expression [1]: More than 1 μM

IGF-II: IGF-II purchased from R&D Systems
mitogenic effect on NSCLC cell growth (NSCLC cell lines): minimal mitogenic effect

CC1=C(/C=C/C(C)=C/C=C/C(C)=C/C(=O)Nc2ccc(O)cc2)C(C)(C)CCC1 [4-HPR, N-(4-hydroxyphenyl)retinamide, reference compound]
cell proliferation, control versus constitutively active Akt (1799 cells): no difference in cell proliferation | levels of pAkt and pGSK-3β [2]: did not alter levels of pAkt and pGSK-3β

bFGF: angiogenesis inducer, 50 ng/disk, in the CAM assay
positivity for angiogenesis in chick embryos (chick embryo CAM): 5/5

IGFBP-3: insulin growth factor binding protein 3 secreted from Ad5CMV-BP3-infected H1299 cells
binding of secreted IGFBP-3 to IGF-I (IGF-I): bound strongly
